Source: patent US20250368652A1, “MICROBIOCIDAL BICYCLIC HETEROCYCLIC CARBOXAMIDE DERIVATIVES” (SYNGENTA CROP PROTECTION AG, priority 2022, published 2025)

Key:
Alternaria solani = Alternaria solani / tomato / leaf disc (early blight); type: in vivo; settings: 200 ppm; tomato leaf disks cv. Baby, inoculated 2 days after application; compared to untreated control
Method: Leaf disks or leaf segments of various plant species are cut from plants grown in a greenhouse. The cut leaf disks or segments are placed in multiwell plates (24-well format) onto water agar. The leaf disks are sprayed with a test solution before (preventative) or after (curative) inoculation. Compounds to be tested are prepared as DMSO solutions (max. 10 mg/mL) which are diluted to the appropriate concentration with 0.025% Tween20 just before spraying. The inoculated leaf disks or segments are incubated under defined conditions (temperature, relative humidity, light, etc.) according to the respective test system. A single evaluation of disease level is carried out 3 to 14 days after inoculation, depending on the pathosystem. Percent disease control relative to the untreated check leaf disks or segments is then calculated. Tomato leaf disks cv. Baby are placed on agar in multiwell plates (24-well format) and sprayed with the formulated test compound diluted in water. The leaf disks are inoculated with a spore suspension of the fungus 2 days after application. The inoculated leaf disks are incubated at 23° C./21° C.

[1] = system: Botryotinia fuckeliana (Botrytis cinerea); assay: Botryotinia fuckeliana (Botrytis cinerea) / liquid culture (gray mould); type: cell-based; settings: liquid culture (Vogels broth), growth inhibition photometrically 3-4 days after application, compared to untreated control
Method: (§1) Mycelia fragments or conidia suspensions of a fungus prepared either freshly from liquid cultures of the fungus or from cryogenic storage, are directly mixed into nutrient broth. DMSO solutions of the test compound (max. 10 mg/mL) are diluted with 0.025% Tween20 by a factor of 50 and 10 μL of this solution is pipetted into a microtiter plate (96-well format). The nutrient broth containing the fungal spores/mycelia fragments is then added to give an end concentration of the tested compound. The test plates are incubated in the dark at 24° C. and 96% relative humidity. The inhibition of fungal growth is determined photometrically after 2 to 7 days, depending on the pathosystem, and percent antifungal activity relative to the untreated check is calculated. Conidia of the fungus from cryogenic storage are directly mixed into nutrient broth (Vogels broth). After placing a (DMSO) solution of test compound into a microtiter plate (96-well format), the nutrient broth containing the fungal spores is added. The test plates are incubated at 24° C. and the inhibition of growth is determined photometrically 3-4 days after application.

[2] = system: Glomerella lagenarium (Colletotrichum lagenarium); assay: Glomerella lagenarium (Colletotrichum lagenarium) / liquid culture (anthracnose); type: cell-based; settings: Colletotrichum orbiculare, liquid culture (PDB), growth inhibition photometrically 3-4 days after application, compared to untreated control
Method: as §1, with “nutrient broth (PDB potato dextrose broth). After” for “nutrient broth (Vogels broth). After”, “growth is measured photometrically 3-4” for “growth is determined photometrically 3-4”

Pyrenophora teres = Pyrenophora teres / barley / leaf disc preventative (net blotch); type: in vivo; settings: 200 ppm, barley leaf segments cv. Hasso, inoculated 2 days after application, compared to untreated control

Cc1cc2ncc(Oc3cccc(C4CC4)c3)c(C(=O)NCC(F)c3ccc(Cl)cc3Cl)n2n1 (stereo not shown) [Compound P-1.13, 6-(3-cyclopropylphenoxy)-N-[2-(2,4-dichlorophenyl)-2-fluoro-ethyl]-2-methyl-pyrazolo[1,5-a]pyrimidine-7-carboxamide]
control of Alternaria solani (Alternaria solani): at least 80%
inhibition of growth at 20 ppm [1]: ≥ 80%
inhibition of growth at 20 ppm [2]: ≥ 80%
control of Pyrenophora teres (Pyrenophora teres): at least 80%
